Test results from patent publication US5733912A, “7A-heterocycle substituted hexahydro-1H-pyrrolizine compounds useful in controlling chemical synaptic transmission” (Abbott Laboratories, priority 1997, dated 1998).
Where a name gives a salt, the structure may show the parent alone.

Tests used:
[1] = target: neuronal nicotinic acetylcholine receptors; experiment: Displacement of [3H]-cytisine from nicotinic acetylcholine receptors, crude synaptic membrane preparations from whole rat brain; details: [3H]-cytisine 1.25 nM, whole rat brain membranes, 60 minutes at 4° C.; IC50 converted to Ki by Cheng and Prusoff; read-out: Binding to Neuronal Nicotinic Acetylcholine Receptors (Binding)
Procedure: For the purpose of identifying compounds as cholinergic agents which are capable of interacting with nicotinic acetylcholine receptors in the brain, a ligand-receptor binding assay was carried out as the initial screen. Compounds of the present invention were effective at interacting with neuronal nicotinic acetylcholine receptors as assayed for their ability to displace radioligand from neuronal nicotinic acetylcholine channel receptors labeled with [^3 H]-cytisine ([^3 H]-CYT).
Displacement of [^3 H]-CYT from nicotinic acetylcholine receptors was determined using crude synaptic membrane preparations from whole rat brain (Pabreza et al., Molecular Pharmacol., 1990, 39: 9). Washed membranes were stored at -80° C. prior to use. Frozen aliquots were slowly thawed and resuspended in 20 volumes of buffer (containing: 120 mM NaCl, 5 mM KCl, 2 mM MgCl2, 2 mM CaCl2 and 50 mM Tris-Cl, pH 7.4 @4° C.). After centrifuging at 20,000×g for 15 minutes, the pellets were resuspended in 30 volumes of buffer. Homogenate (containing 125-150 μg protein) was added to triplicate tubes containing concentrations of test compound and [^3 H]-CYT (1.25 nM) in a final volume of 500 μL. Samples were incubated for 60 minutes at 4° C., then rapidly filtered through Whatman GF/B filters presoaked in 0.5% polyethylimine using 3×4 mL of ice-cold buffer. The filters are counted in 4 mL of Ecolume® (ICN). Nonspecific binding was determined in the presence of 10 μM (-)-nicotine and values were expressed as a percentage of total binding.

[2] = test system: neuronal nicotinic acetylcholine receptors; experiment: 86Rb+ efflux assay in IMR-32 human neuroblastoma cells (activation or inhibition of neuronal nicotinic acetylcholine receptors); assay type: cell-based; details: for IMR-32 % response (conc.): relative to the response elicited by 100 μM (S)-nicotine; for IMR-32 % Inhibition (conc.): inhibition of the efflux elicited by 100 μM (S)-nicotine
Procedure: Cells of the IMR-32 human neuroblastoma clonal cell line (ATCC, Rockville, Md.) were maintained in a log phase of growth according to established procedures (Lukas, 1993). Experimental cells were seeded at a density of 500,000 cells/mL into a 24-well tissue culture dish. Plated cells were allowed to proliferate for at least 48 hours before loading with 2 μCi/mL of ^86 Rb^+ (35 Ci/mmol) overnight at 37° C. The ^86 Rb^+ efflux assays were performed according to previously published protocols (Lukas, R. J., J. Pharmacol. Exp. Ther., 265: 294-302, 1993) except serum-free Dulbecco's Modified Eagle's Medium was used during the ^86 Rb^+ loading, rinsing, and agonist-inducedefflux steps.
Responses (reported as percent relative to the response elicited by 100 μM (S)-nicotine) are shown for the indicated concentrations of selected compounds of the invention. The inhibition data (given for other selected compounds) reflect inhibition of the efflux elicited by 100 μM (S)-nicotine at the indicated concentration. […] This finding is in agreement with the results of others who have linked dopamine release, which is dependent upon the ion flux in synaptic transmission, to binding at nicotinic receptors (cf., for example, Lippiello and Caldwell, U.S. Pat. No. 5,242,935, issued Sep. 7, 1993; Caldwell and Lippiello, U.S. Pat. No. 5,248,690, issued Sep. 28, 1993; and Wonnacott et al., Prog. Brain Res., 79: 157-163 (1989)).

SMILES	Ki [1] [nM]	IMR-32 % response (conc.) ([2]; 10 μM) [%]	IMR-32 % response (conc.) ([2]; 100 μM) [%]	IMR-32 % response (conc.) ([2]; 1 μM) [%]	IMR-32 % Inhibition (conc.) ([2]; 10 μM) [%]
Cl.Cl.c1ccc2ncc(C34CCCN3CCC4)cc2c1 [Example 4, 7a-(3-quinolinyl)-hexahydro-1H-pyrrolizine dihydrochloride]	4.3	40	–	–	–
Cl.Fc1ccc(C23CCCN2CCC3)cn1 [Example 12, 7a-(6-fluoro-3-pyridinyl)-hexahydro-1H-pyrrolizine hydrochloride salt]	0.27	93	–	–	–
Cc1cc(C23CCCN2CCC3)[nH]n1 [Example 2, 7a-(1H-3-methyl-5-pyrazolyl)-hexahydro-1H-pyrrolizine dihydrochloride]	70	–	–	–	–
Cl.Fc1ncc(C23CCCN2CCC3)cc1Br [Example 22, 7a-(5-bromo-6-fluoro-3-pyridinyl)-hexahydro-1H-pyrrolizine hydrochloride salt]	0.22	42	–	–	–
Brc1cncc(C23CCCN2CCC3)c1.Cl [Example 17, 7a-(5-bromo-3-pyridinyl)-hexahydro-1H-pyrrolizine hydrochloride salt]	0.61	41	–	–	–
CCc1cc(C23CCCN2CCC3)on1.Cl [Example 13, 7a-(3-ethyl-5-isoxazolyl)-hexahydro-1H-pyrrolizine hydrochloride salt]	1.4	–	108	–	–
Cc1ccc(C23CCCN2CCC3)cn1.Cl [Example 20, 7a-(6-methyl-3-pyridinyl)-hexahydro-1H-pyrrolizine hydrochloride salt]	0.56	–	–	98	–
Clc1ncccc1C12CCCN1CCC2 [Example 7, 7a-(2-chloro-3-pyridinyl)-hexahydro-1H-pyrrolizine hydrochloride]	436	–	–	–	–
c1ccc(COc2cncc(C34CCCN3CCC4)c2)cc1 [Example 16b, 7a-(3-benzyloxy-5-pyridinyl)-hexahydro-1H-pyrrolizine]	0.27	–	–	–	–
Cc1cncc(C23CCCN2CCC3)c1.Cl [Example 21, 7a-(5-methyl-3-pyridinyl)-hexahydro-1H-pyrrolizine hydrochloride salt]	0.33	–	–	56	–
Cl.Oc1cncc(C23CCCN2CCC3)c1 [Example 16, 7a-(3-hydroxy-5-pyridinyl)-hexahydro-1H-pyrrolizine hydrochloride salt]	1.4	–	53	–	–
c1ccc(-c2cncc(C34CCCN3CCC4)c2)cc1 [Example 25, 7a-(5-phenyl-3-pyridinyl)-hexahydro-1H-pyrrolizine hydrochloride salt]	0.25	–	–	–	–
Cc1ccncc1C12CCCN1CCC2.Cl [Example 24, 7a-(4-methyl-3-pyridinyl)-hexahydro-1H-pyrrolizine hydrochloride salt]	72	–	0	–	14
Cl.Clc1cc(C23CCCN2CCC3)cnc1Cl [Example 8, 7a-(5,6-dichloro-3-pyridinyl)-hexahydro-1H-pyrrolizine hydrochloride]	0.055	–	–	71	–
Cc1cc(C23CCCN2CCC3)cnc1Cl.Cl [Example 19, 7a-(6-chloro-5-methyl-3-pyridinyl)-hexahydro-1H-pyrrolizine hydrochloride salt]	0.05	–	–	91	–
Cl.c1ncc(C23CCCN2CCC3)cn1 [Example 9, 7a-(5-pyrimidinyl)-hexahydro-1H-pyrrolizine hydrochloride]	3.7	–	39	–	–
Cl.c1cncc(C23CCCN2CCC3)c1 [Example 3, 7a-(3-pyridinyl)-hexahydro-1H-pyrrolizine hydrochloride]	0.38	71	–	–	–
Cc1cc(C23CCCN2CCC3)cnc1F.Cl [Example 18, 7a-(6-fluoro-5-methyl-3-pyridinyl)hexahydro-1H-pyrrolizine hydrochloride salt]	0.11	66	–	–	–
Cl.Fc1ccc(C23CCCN2CCC3)c(F)n1 [Example 10, 7a-(2,6-difluoro-3-pyridinyl)-hexahydro-1H-pyrrolizine hydrochloride]	2.9	13	–	–	12
Fc1ncccc1C12CCCN1CCC2 [Example 6, 7a-(2-fluoro-3-pyridinyl)-hexahydro-1H-pyrrolizine hydrochloride salt]	5.7	–	–	–	–
Cl.Clc1ccc(C23CCCN2CCC3)cn1 [Example 5, 7a-(6-chloro-3-pyridinyl)-hexahydro-1H-pyrrolizine hydrochloride]	0.1	–	–	82	–
CCCc1cc(C23CCCN2CCC3)on1.Cl [Example 14, 7a-(3-propyl-5-isoxazolyl)-hexahydro-1H-pyrrolizine hydrochloride salt]	1.7	–	74	–	–
Cl.Fc1ncc(C23CCCN2CCC3)cc1Cl [Example 23, 7a-(5-chloro-6-fluoro-3-pyridinyl)-hexahydro-1H-pyrrolizine hydrochloride salt]	0.23	68	–	–	–
c1ccc(Cc2cc(C34CCCN3CCC4)on2)cc1 [Example 15, 7a-(3-benzyl-5-isoxazolyl)-hexahydro-1H-pyrrolizine hydrochloride salt]	4	–	–	–	–
Cc1cc(C23CCCN2CCC3)on1.Cl [Example 1, 7a-(3-methyl-5-isoxazolyl)-hexahydro-1H-pyrrolizine hydrochloride]	0.97	110	–	–	–
Clc1ccc(C23CCCN2CCC3)c(Cl)n1 [Example 11, 7a-(2,6-dichloro-3-pyridinyl)-hexahydro-1H-pyrrolizine hydrochloride salt]	1420	–	–	–	–
